The values that follow come from US10329309B2, “3-(3H-imidazo[4,5-B]pyridin-2-yl)-1H-pyrazolo[4,3-B]pyridines and therapeutic uses thereof” (Samumed, LLC, priority 2015, dated 2019).

Test [1] deals with Wnt activity (Sp5-Luc reporter, SW480 colon carcinoma cells). In words: Screening assay for Wnt activity: Sp5-Luc reporter gene assay in SW480 cells. The test is classed as cell-based. The settings on record: Homo sapiens; for inhibition at 10 µM: 10 μM compound, read-out: percent inhibition at 10 μM (given for EC50 of >10 μM); for EC50: overnight incubation, 10-point dose-response from 10 μM. An outline of the steps: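 SW480 cells stably carrying Sp5-Luc reporter (eight TCF/LEF sites) plated at 4,000/well in 1% FBS medium with compound (10-point 1:3 series from 10 μM, 0.1% DMSO) overnight at 37 °C. BrightGlo luminescence normalized to DMSO; EC50 by four-parameter fit, else % inhibition at 10 μM.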
(In general: In a reporter assay the amount or activity of a reporter protein is the signal.)

The subject of test [2] is primary human mesenchymal stem cells (hMSCs). In words: Induction of chondrogenesis in primary human mesenchymal stem cells (nodule imaging, Rhodamine B/Nile Red). The format is cell-based. The settings on record: hMSC chondrogenesis; for Emax: TGF-β3 as positive control, read-out: Max. Activity as % TGF-β3 activity; for EC50: concentration required to induce 50% levels of chondrogenesis vs TGF-β3, read-out: Conc (nM) of 50% TGF-β3 activity. The procedure:
Representative compounds were screened using primary human mesenchymal stem cells (hMSCs) to determine their ability to induce chondrogenesis (process by which cartilage is developed).
Primary human mesenchymal stem cells (hMSCs) were purchased from Lonza (Walkersville, Md.) and expanded in Mesenchymal Stem Cell Growth Media (Lonza). Cells between passage 3 and 6 were used for the experiments.
Each compound was dissolved in DMSO as a 10 mM stock and used to prepare compound source plates. For the 96 well assay, serial dilution (1:3, 6-point dose-response curves from 2700 nM to 10 nM) and compound transfer was performed using the ECHO 550 (Labcyte, Sunnyvale, Calif.) into 96-well clear bottom assay plates (Greiner Bio-One) with appropriate DMSO backfill for a final DMSO concentration of 0.03%. hMSCs were plated at 20,000 cells/well in 250 μL/well Incomplete Chondrogenic Induction Medium (Lonza; DMEM, dexamethasone, ascorbate, insulin-transferrin-selenium [ITS supplement], gentamycin-amphotericin [GA-1000], sodium pyruvate, proline and L-glutamine). TGF-−3 (10 ng/mL) was used as a positive control for differentiation while negative control wells were treated with 75 nL DMSO for normalization and calculating EC50 values. For the 384 well assay, serial dilution (1:3, 8-point dose-response curves from 5000 nM to 2.2 nM) and compound transfer was performed using the ECHO 550 (Labcyte, Sunnyvale, Calif.) into 384-well clear bottom assay plates (Greiner Bio-One) with appropriate DMSO backfill for a final DMSO concentration of 0.03%. hMSCs were plated at 8,000 cells/well in 80 μL/well Incomplete Chondrogenic Induction Medium (Lonza; DMEM, dexamethasone, ascorbate, insulin-transferrin-selenium [ITS supplement], gentamycin-amphotericin [GA-1000], sodium pyruvate, proline and L-glutamine). TGF-β3 (10 ng/mL) was used as a positive control for differentiation while negative control wells were treated with 25 nL DMSO for normalization and calculating EC50 values. Cells were incubated at 37° C. and 5% CO2 for 6 days. To image chondrogenic nodules, the cells were fixed using 4% formaldehyde (Electron Microscopy Sciences), and stained with 2 μg/mL Rhodamine B (Sigma-Aldrich) and 20 μM Nile Red (Sigma-Aldrich) [Johnson K., et. al, A Stem Cell-Based Approach to Cartilage Repair, Science, (2012), 336(6082), 717-721]. The nodules imaged (25 images per well for 96 well plates and 9 images per well for 384 well plates at 10× magnification) by excitation at 531 nm and emission at 625 nm and quantified using the CellInsight CX5 (Thermo Scientific). Area of nodules in each well was normalized to the average of 3 DMSO treated wells on the same plate using Excel (Microsoft Inc.). The normalized averages (fold change over DMSO) of 2 or 3 replicate wells for each compound concentration were calculated. Due to solubility limitations of some of the compounds, curve fitting was incomplete leading to inaccurate EC50 determinations.
Using TGF-β3 as a positive control, the concentration of representative compounds required to induce 50% levels of chondrogenesis is reported. In addition, the maximum activity of each compound and the respective dose that each compound reached maximum chondrogenesis activity is reported.

The inhibition is the change of the read-out against control, counted positive when it falls. As to `CCC(=O)Nc1cncc(-c2ccc3[nH]nc(-c4nc5c(-c6cccc(F)c6)ccnc5[nH]4)c3n2)c1` [Compound 1, N-(5-(3-(7-(3-fluorophenyl)-3H-imidazo[4,5-b]pyridin-2-yl)-1H-pyrazolo [4,3-b]pyridin-5-yl)pyridin-3-yl)propionamide], in test [1], the inhibition at 10 µM is 51.6% and the EC50 was above 10000 nM. Besides, the Emax in test [2] was found to be 29%.
For the compound `Fc1cccc(-c2ccnc3[nH]c(-c4n[nH]c5ccc(-c6ccncc6)nc45)nc23)c1` [Compound 18, 3-(7-(3-fluorophenyl)-3H-imidazo[4,5-b]pyridin-2-yl)-5-(pyridin-4-yl)-1H-pyrazolo[4,3-b]pyridine], in test [1], the inhibition at 10 µM was 21% and the EC50 is above 10000 nM. Also, the Emax in test [2] worked out at 42%.
`Fc1cccc(-c2ccnc3[nH]c(-c4n[nH]c5ccc(-c6cncc(CN7CCC(F)(F)C7)c6)nc45)nc23)c1` [Compound 26, 5-(5-((3,3-Difluoropyrrolidin-1-yl)methyl)pyridin-3-yl)-3-(7-(3-fluorophenyl)-3H-imidazo[4,5-b]pyridin-2-yl)-1H-pyrazolo[4,3-b]pyridine] showed an EC50 in test [1] of 885 nM. In test [2], the Emax turned out to be 247% and the EC50 was 900 nM.
On to `CC(C)(C)C(=O)Nc1cncc(-c2ccc3[nH]nc(-c4nc5c(-c6ccc(F)cc6)ccnc5[nH]4)c3n2)c1` [Compound 36, N-(5-(3-(7-(4-fluorophenyl)-3H-imidazo[4,5-b]pyridin-2-yl)-1H-pyrazolo [4,3-b]pyridin-5-yl)pyridin-3-yl)pivalamide], for which, in test [1], the inhibition at 10 µM stood at 28.4% and the EC50 is above 10000 nM. In test [2], the Emax was determined as 63% and the EC50 was 10 nM.
Take `Fc1ccc(-c2ccnc3[nH]c(-c4n[nH]c5ccc(-c6cncnc6)nc45)nc23)cc1` [Compound 55, 3-(7-(4-Fluorophenyl)-3H-imidazo[4,5-b]pyridin-2-yl)-5-(pyrimidin-5-yl)-1H-pyrazolo[4,3-b]pyridine]: in test [1], the inhibition at 10 µM amounted to 20.2% and the EC50 is above 10000 nM. In test [2], the Emax came out at 99% and the EC50 was 30 nM.
On to `Nc1cncc(-c2ccc3[nH]nc(-c4nc5c(-c6ccccc6F)ccnc5[nH]4)c3n2)c1` [Compound 59, 5-(3-(7-(2-fluorophenyl)-3H-imidazo[4,5-b]pyridin-2-yl)-1H-pyrazolo[4,3-b]pyridin-5-yl)pyridin-3-amine], for which, in test [1], the inhibition at 10 µM came to 46.5% and the EC50 was above 10000 nM. Also, in test [2], the Emax stood at 127% and the EC50 worked out at 10 nM.
On the same counts, the results for `CC(C)C(=O)Nc1cncc(-c2ccc3[nH]nc(-c4nc5c(-c6ccccc6F)ccnc5[nH]4)c3n2)c1` [Compound 65, N-(5-(3-(7-(2-fluorophenyl)-3H-imidazo[4,5-b]pyridin-2-yl)-1H-pyrazolo [4,3-b]pyridin-5-yl)pyridin-3-yl)isobutyramide] are 14.3%, above 10000 nM, 197% and 10 nM.
Consider `CC(C)C(=O)Nc1cncc(-c2ccc3[nH]nc(-c4nc5c(-c6cccnc6)ccnc5[nH]4)c3n2)c1` [Compound 93, N-(5-(3-(7-(pyridin-3-yl)-3H-imidazo[4,5-b]pyridin-2-yl)-1H-pyrazolo[4,3-b]pyridin-5-yl)pyridin-3-yl)isobutyramide], for which, in test [1], the inhibition at 10 µM stood at 10.2% and the EC50 was above 10000 nM. The Emax in test [2] amounted to 26%.
Take `Cc1ccncc1-c1ccc2[nH]nc(-c3nc4c(-c5ccncc5)ccnc4[nH]3)c2n1` [Compound 117, 5-(4-methylpyridin-3-yl)-3-(7-(pyridin-4-yl)-3H-imidazo[4,5-b]pyridin-2-yl)-1H-pyrazolo[4,3-b]pyridine]: in test [1], the inhibition at 10 µM amounted to 4.8% and the EC50 was above 10000 nM. In addition, in test [2], the Emax came to 147% and the EC50 worked out at 100 nM.
With `O=C(Cc1ccccc1)Nc1cncc(-c2ccc3[nH]nc(-c4nc5c(-c6ccncc6)ccnc5[nH]4)c3n2)c1` [Compound 122, 2-phenyl-N-(5-(3-(7-(pyridin-4-yl)-3H-imidazo[4,5-b]pyridin-2-yl)-1H-pyrazolo[4,3-b]pyridin-5-yl)pyridin-3-yl)acetamide], in test [1], the inhibition at 10 µM was determined as 8.4% and the EC50 was above 10000 nM. Also, in test [2], the Emax is 63% and the EC50 stood at 10 nM.
As to `CCCC(=O)Nc1cncc(-c2ccc3[nH]nc(-c4nc5c(-c6ccncc6)ccnc5[nH]4)c3n2)c1` [Compound 129, N-(5-(3-(7-(pyridin-4-yl)-3H-imidazo[4,5-b]pyridin-2-yl)-1H-pyrazolo[4,3-b]pyridin-5-yl)pyridin-3-yl)butyramide], in test [1], the inhibition at 10 µM amounted to 4.3% and the EC50 is above 10000 nM. Further, the Emax in test [2] was 50%.
As to `O=C(Nc1cncc(-c2ccc3[nH]nc(-c4nc5c(-c6ccncc6)ccnc5[nH]4)c3n2)c1)C1CCCCC1` [Compound 135, N-(5-(3-(7-(pyridin-4-yl)-3H-imidazo[4,5-b]pyridin-2-yl)-1H-pyrazolo[4,3-b]pyridin-5-yl)pyridin-3-yl)cyclohexanecarboxamide], in test [1], the inhibition at 10 µM came to 10.4% and the EC50 is above 10000 nM. In test [2], the Emax is 69% and the EC50 was determined as 10 nM.
For `CCNCc1cncc(-c2ccc3[nH]nc(-c4nc5c(-c6ccccn6)ccnc5[nH]4)c3n2)c1` [Compound 146, N-((5-(3-(7-(pyridin-2-yl)-3H-imidazo[4,5-b]pyridin-2-yl)-1H-pyrazolo[4,3-b]pyridin-5-yl)pyridin-3-yl)methyl)ethanamine], in test [1], the inhibition at 10 µM is 10.6% and the EC50 is above 10000 nM. The Emax in test [2] was determined as 28%.
As to `C1=C(c2ccc3[nH]nc(-c4nc5c(-c6ccc7c(c6)OCO7)ccnc5[nH]4)c3n2)CCNC1` [Compound 1109, 3-(7-(Benzo[d][1,3]dioxol-5-yl)-3H-imidazo[4,5-b]pyridin-2-yl)-5-(1,2,3,6-tetrahydropyridin-4-yl)-1H-pyrazolo[4,3-b]pyridine], in test [1], the inhibition at 10 µM is 14.5% and the EC50 is above 10000 nM.
Turning to `Cn1cc(-c2ccc3[nH]nc(-c4nc5c(-c6ccc(F)cc6)ccnc5[nH]4)c3n2)c(CO)n1` [Compound 1129, (4-(3-(7-(4-Fluorophenyl)-3H-imidazo[4,5-b]pyridin-2-yl)-1H-pyrazolo[4,3-b]pyridin-5-yl)-1-methyl-1H-pyrazol-3-yl)methanol], in test [1], the inhibition at 10 µM stood at 14.8% and the EC50 was above 10000 nM.
For `Cn1cc(-c2ccc3[nH]nc(-c4nc5c(N6CCCCC6)ccnc5[nH]4)c3n2)c(CO)n1` [Compound 1134, (1-Methyl-4-(3-(7-(piperidin-1-yl)-3H-imidazo[4,5-b]pyridin-2-yl)-1H-pyrazolo[4,3-b]pyridin-5-yl)-1H-pyrazol-3-yl)methanol], in test [1], the inhibition at 10 µM was 4% and the EC50 is above 10000 nM.
For `Cn1cc(-c2ccc3[nH]nc(-c4nc5c(-c6ccc7c(c6)OCO7)ccnc5[nH]4)c3n2)c(CO)n1` [Compound 1152, (4-(3-(7-(Benzo[d][1,3]dioxol-5-yl)-3H-imidazo[4,5-b]pyridin-2-yl)-1H-pyrazolo[4,3-b]pyridin-5-yl)-1-methyl-1H-pyrazol-3-yl)methanol] the same measures were 15.4% and above 10000 nM.
